The text below walks through data of PMC9721426, “Novel piperine-carboximidamide hybrids: design, synthesis, and antiproliferative activity via a multi-targeted inhibitory pathway” (Journal of Enzyme Inhibition and Medicinal Chemistry, 2022).

SMILES strings stand for the structures.

Data set [1] deals with T1, BRAF^V600E (Mus musculus, UniProt P28028, V585E).
T1 construct: Mouse full-length GST-tagged BRAFV600E; GST; purchased Invitrogen PV3849
Kind of data set: BRAF V600E kinase assay. The note with it: read-out: BRAF^V600E inhibition IC50 ± SEM. The class given is biochemical. As for the experimental part: An in vitro study was conducted to evaluate the anti-BRAF^V600E of VIc, VIf, VIg, VIi, and VIk[31]. […] An in vitro study[31] was conducted to evaluate the anti-BRAF^V600E of VIc, VIf, VIg, VIi, and Vik. See Appendix A.
4.2.1.4. BRAF kinase assay
V600E mutant BRAF kinase assay was performed to investigate the activity of the most […]
Mouse full-length GST-tagged BRAFV600E (7.5 ng, Invitrogen, PV3849) was pre-incubated with drug (1 µL) and assay dilution buffer (4 µL) for 60 min at 25 °C. In assay dilution buffer, a solution (5 µL) containing MgCl 2 (30 mM), ATP (200 µM), recombinant human full length (200 ng) […] N-terminal His-tagged MEK1 (Invitrogen) was added to start the assay, subsequent to incubation for 25 min at 25 °C. The assay was stopped using 5X protein denaturing buffer (LDS) solution (5 µL).
To further denature the protein, heat (70° C) was applied for 5 min.
NuPage gel plates (Invitrogen) were used to carry out electrophoresis (at 200 V). 10 µL of each reaction was loaded into the precast plates and electrophoresis was allowed to proceed. After completion of electrophoresis, the front part of the precast gel plate (holding hot ATP) was cut and afterw ards cast-off. The dried gel was developed using a […]
that containing no inhibitor served as positive control. […]

Data set [2] concerns HT-29 (colon cancer cell line). Kind of data set: Antiproliferative MTT assay, HT-29. The class given is cell-based. The note with it: Homo sapiens; HT-29, MTT; read-out: Antiproliferative activity IC50 ± SEM, HT-29. As for the experimental part: (§1) The MTT assay was performed using various cell lines in accordance with previously reported procedures[28]^,[29] to investigate the antiproliferative potential of VIa-k. Refer to Appendix A. […]
(§2) added (in 200 μL medium to yield a final concentration of 0.1% v/v) to the wells of plates. A single compound was designated with four wells followed by incubation of […]
(§3) After incubation, medium was removed completely from the plates followed by addition of MTT (0.4 mg/mL in medium) to each well and subsequent incubation of plates for 3h. MTT (along with the medium) was removed and DMSO (150μL) was added to each well of the culture plates, followed by vortexing and subsequent measurement of absorbance (at 540 nm) using microplate reader. The data are shown as percentage inhibition of proliferation in comparison with controls containing 4.2.1.2. Assay for antiproliferative effect […]
(§4) The percentage cytotoxicity of compounds was calculated using the following […]
(§5) Where ATC= Absorbance of treated cells and AC= Absorbance of control. […]
(§6) used as positive control in the assay. […]
(In general: Tetrazolium assays rely on reduction of a dye to a coloured formazan, in cell work by metabolically active cells.)

Data set [3] concerns the target Human CDK2/A2 (Homo sapiens, UniProt P24941). Kind of data set: CDK2 inhibitory assay.
Procedure: Protein Kinase Assays. Human CDK2/A2 was purchased from New England Biolabs IC50 values for CDK2/A were determined according to the supplier’s instructions
Data set [4] has as its system MCF-7 (breast cancer cell line). Kind of data set: Antiproliferative MTT assay, MCF-7. In kind it is cell-based. The note with it: Homo sapiens, MCF7; MCF-7, MTT; read-out: Antiproliferative activity IC50 ± SEM, MCF-7. How it is done: as §1, §2, §3, §4, §5, §6
Data set [5] in a line: MTT cell viability assay on normal mammary epithelial cells. In kind it is cell-based. The note with it: human, MCF-10A normal cells, 4 days incubation. How it is done: A human mammary gland epithelial (MCF-10A) normal cell line was used to perform the viability test. The viability of compounds VIa-k was determined using the MTT assay after 4 days of incubation with MCF-10A cells[26]^,[27].
The MTT assay was used to assess how the synthetic compounds impacted the viability of mammary epithelial cells (MCF-10A)[26]^,[27]. Appendix A. […]
4.2. Biological evaluation
4.2.1. Cytotoxic activity using MTT Assay and evaluation of IC50
MTT assay was carried out to study the effect of compounds on mammary epithelial cells (MCF-10A)26,27. The medium in which cells were propagated contained Dulbecco's modified Eagle's medium (DMEM)/ Ham's F-12 medium (1:1) supplemented with epidermal growth factor (20 ng/mL), hydrocortisone (500 ng/mL), insulin (10 μg/mL), 2 mM glutamine and 10% foetal calf serum. After every 2-3 days, the cells were passaged using trypsin ethylenediamine tetra acetic acid (EDTA). The cells were seeded at a density of 10^4 cells mL-1 in flat-bottomed culture plates containing 96 wells each. […]
A single compound was designated with four wells followed by incubation of plates for 96h at 37°C. After incubation, medium was removed completely from the plates followed by addition of MTT (0.4 mg/mL in medium) to each well and subsequent incubation of plates for 3h. MTT (along with the medium) was removed and DMSO (150μL) was added to each well of the culture plates, followed by vortexing and subsequent measurement of absorbance (at 540 nm) using microplate reader. […]

For data set [6], the system named is LOX-IMVI melanoma cell line. Kind of data set: LOX-IMVI melanoma cell line MTT cytotoxicity assay. The class given is cell-based. The note with it: Homo sapiens, 5-dose concentrations, read-out: LOX-IMVI melanoma IC50 ± SEM. How it is done:
The MTT cytotoxicity assay was used to assess the anticancer activity of VIc, VIf, and VIk on the LOX-IMVI melanoma cell line, which comprises BRAF^V600E kinase overexpression. The compounds were evaluated at 5-dose concentrations to ascertain their IC50 values, with staurosporine acting as a control.
The MTT cytotoxicity assay was used to assess the anticancer activity of VIc, VIf, and VIk on the LOX-IMVI melanoma cell line, which comprises BRAF^V600E kinase overexpression. Refer to Appendix A.

For data set [7], the system named is A-549 (epithelial cancer cell line). Kind of data set: Antiproliferative MTT assay, A-549. The class given is cell-based. The note with it: Homo sapiens, A549; A-549, MTT; read-out: Antiproliferative activity IC50 ± SEM, A-549. How it is done:
as §1, §2, §3, §4, §5, §6

For data set [8], the system named is four human cancer cell lines (Panc-1, MCF-7, HT-29, A-549). The experiment in a line: Antiproliferative MTT assay, average (GI50) over the four cancer cell lines. In kind it is cell-based. The note with it: Homo sapiens; average of IC50 versus A-549, MCF-7, Panc-1, HT-29. How it is done: The average (GI50) versus the four cancer cell lines was chosen for ease of manipulation.
as §1, §2, §3, §4, §5, §6

In data set [9] the test system is Panc-1 (pancreatic cancer cell line). Kind of data set: Antiproliferative MTT assay, Panc-1. In kind it is cell-based. The note with it: Homo sapiens; Panc-1, MTT; read-out: Antiproliferative activity IC50 ± SEM, Panc-1. How it is done:
as §1, §2, §3, §4, §5, §6

The mark [10] stands for this setting: MCF-10A mammary epithelial cells.

T1 sequence (P28028 whole entry V585E): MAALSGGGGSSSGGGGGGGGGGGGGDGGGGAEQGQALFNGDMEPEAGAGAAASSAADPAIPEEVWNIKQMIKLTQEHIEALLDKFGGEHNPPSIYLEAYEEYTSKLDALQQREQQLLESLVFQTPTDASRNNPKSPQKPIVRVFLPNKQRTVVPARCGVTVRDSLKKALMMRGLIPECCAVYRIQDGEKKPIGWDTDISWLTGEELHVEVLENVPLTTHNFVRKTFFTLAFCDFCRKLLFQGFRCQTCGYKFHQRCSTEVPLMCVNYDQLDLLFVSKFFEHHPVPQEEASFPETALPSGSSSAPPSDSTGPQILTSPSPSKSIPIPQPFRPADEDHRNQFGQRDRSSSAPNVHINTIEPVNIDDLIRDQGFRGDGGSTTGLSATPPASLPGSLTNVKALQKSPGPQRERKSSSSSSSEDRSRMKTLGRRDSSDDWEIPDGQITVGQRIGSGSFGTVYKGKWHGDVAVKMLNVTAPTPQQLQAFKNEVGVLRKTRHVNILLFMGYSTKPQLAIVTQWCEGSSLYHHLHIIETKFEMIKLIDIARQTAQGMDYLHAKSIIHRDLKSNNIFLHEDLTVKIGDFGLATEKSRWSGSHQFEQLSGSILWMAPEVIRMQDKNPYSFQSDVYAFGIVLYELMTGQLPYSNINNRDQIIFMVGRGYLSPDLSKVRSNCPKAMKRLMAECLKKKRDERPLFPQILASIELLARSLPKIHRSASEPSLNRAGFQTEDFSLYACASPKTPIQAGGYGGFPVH

One may read the IC50 as the concentration needed to halve the response being measured. As a reminder, the viability is the share of living cells, or the viability signal relative to a control. Low values mean more harm to the cells, high ones less harm to the cells. A word on the GI50: it is the concentration giving 50% growth inhibition. In the case of `NC(=NOC(=O)/C=C/C=C/c1ccc2c(c1)OCO2)c1ccccc1Cl` [VIf, N'-{[(2E,4E)-5-(2H-1,3-benzodioxol-5-yl)penta-2,4-dienoyl]oxy}-2-chlorobenzene-1-carboximidamide], the IC50 in [1] amounted to 49 ± 5 nM; in data set [2] it was 47 ± 4 nM; in data set [3] it was 21 ± 2 nM; in data set [4], 43 ± 4 nM; in [6], 1100 ± 10 nM; in data set [7], 41 ± 4 nM. Also, in data set [9], the IC50 came to 45 ± 4 nM. This compound had a viability at 4 days, 50 µM in data set [5] (setting [10]) of 90%. For the same compound, the GI50 in [8] was 44 nM.
In the case of `N/C(=N/OC(=O)/C=C/C=C/c1ccc2c(c1)OCO2)c1ccc2c(c1)OCO2` [VIk], the IC50 in data set [1] worked out at 40 ± 4 nM; in data set [2], 38 ± 3 nM; in data set [3], 12 ± 2 nM; in data set [4] it was 35 ± 3 nM; in [6] it was 1050 ± 10 nM; in [7], 32 ± 3 nM. Besides, in data set [9], the IC50 worked out at 36 ± 3 nM. For the same compound, in data set [3] (ratio of IC50 values), the “CDK2 potency relative to the reference dinaciclib (more potent)” value was determined as 1.5 fold. Also, the viability at 4 days, 50 µM in [5] (MCF-10A normal mammary gland epithelial cells) was 89%. The GI50 in [8] amounted to 35 nM.
With `NC(=NOC(=O)/C=C/C=C/c1ccc2c(c1)OCO2)c1ccc(Br)cc1` [VIc, N'-{[(2E,4E)-5-(2H-1,3-Benzodioxol-5-yl)penta-2,4-dienoyl]oxy}-4-bromobenzene-1-carboximidamide], the IC50 amounted to 57 ± 6 nM in [1]; 55 ± 5 nM in data set [2]; 23 ± 2 nM in data set [3]; 47 ± 5 nM in [4]; 1400 ± 20 nM in data set [6]; 45 ± 5 nM in data set [7]. For the same compound, the IC50 in [9] stood at 53 ± 5 nM. In data set [5] (setting [10]), the viability at 4 days, 50 µM was found to be 86%. This compound also had a GI50 in data set [8] of 50 nM.
